Here are results for eight molecules from patent publication US12234230B2, “Substituted benzyl-triazole compounds for Cbl-b inhibition, and further uses thereof” (Nurix Therapeutics, Inc., priority 2019, dated 2025).

Molecules are shown by their SMILES. Like-named read-outs stand apart in the source and are kept apart here.

In assay [1] the test system is primary human total T-cells. As to the kind of experiment: Primary human total T-cell activation (IL-2 secretion, CD25 surface staining), Biological Example 2. The following applies: fold change over baseline; for IL-2 secretion CD3/CD28 0.3 μM / CD25 staining CD3/CD28 0.3 μM: 0.3 μM inhibitor; for IL-2 secretion CD3/CD28 0.3 μM / IL-2 secretion CD3/CD28 1 μM / CD25 staining CD3/CD28 0.3 μM / CD25 staining CD3/CD28 1 μM: anti-CD3 and anti-CD28 co-stimulation; for IL-2 secretion CD3/CD28 1 μM / CD25 staining CD3 1 μM / IL-2 secretion CD3 1 μM / CD25 staining CD3/CD28 1 μM: 1 μM inhibitor; for CD25 staining CD3 1 μM / IL-2 secretion CD3 1 μM / CD25 staining CD3 3 μM / IL-2 secretion CD3 3 μM: anti-CD3 stimulation alone; for CD25 staining CD3 3 μM / IL-2 secretion CD3 3 μM: 3 μM inhibitor.

In another assay the target is Cbl-b (Homo sapiens (Human), UniProt Q13191). As to the kind of experiment: Cbl-b displacement assay (Cbl-b inhibition assay), Biological Example 1. The assay is classed as binding. The protocol:
The ability of candidate compounds to displace a known inhibitor and thereby inhibit Cbl-b activity was measured by monitoring the interaction of Cbl-b with a fluorophore-labeled probe in the presence of the candidate compound.
Following the one hour incubation, the plates were read for TR-FRET signal at 520/620 nm using an Envision plate reader (Perkin Elmer).

The mark [2] stands for this setting: 0.125 nM Cbl-b final concentration (Low), read-out: Cbl-b activity IC50 (Low).
Setting [3] is: read-out: IC50 values in the Cbl-b inhibition assay of Biological Example 1.

Cbl-b, sequence (Q13191 36-427): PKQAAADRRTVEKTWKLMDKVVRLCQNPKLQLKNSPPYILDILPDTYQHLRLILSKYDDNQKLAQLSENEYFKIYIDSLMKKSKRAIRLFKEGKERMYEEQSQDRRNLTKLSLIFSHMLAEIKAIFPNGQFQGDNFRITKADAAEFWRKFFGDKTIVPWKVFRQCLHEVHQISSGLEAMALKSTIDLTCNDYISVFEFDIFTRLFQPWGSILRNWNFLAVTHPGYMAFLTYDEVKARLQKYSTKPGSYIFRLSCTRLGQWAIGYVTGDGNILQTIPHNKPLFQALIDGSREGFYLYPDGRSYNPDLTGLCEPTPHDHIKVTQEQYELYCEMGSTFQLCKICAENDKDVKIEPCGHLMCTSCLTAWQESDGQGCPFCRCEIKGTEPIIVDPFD

In the case of `CC(c1cc2c(c(C(F)(F)F)c1)CN(c1cccc([C@@H](c3nncn3C)C3CCC3)c1)C2=O)N1CCC[C@H](C)C1` (stereo partly drawn) [Compound 16, 2-(3-((S)-cyclobutyl(4-methyl-4H-1,2,4-triazol-3-yl)methyl)phenyl)-6-(1-((S)-3-methylpiperidin-1-yl)ethyl)-4-(trifluoromethyl)isoindolin-1-one], in assay [1], the “IL-2 secretion CD3/CD28 0.3 μM” value is “C (C indicates <20 fold)”, the “IL-2 secretion CD3/CD28 1 μM” value is recorded as “B (B indicates 20-35 fold)”, the “CD25 staining CD3 1 μM” value is on record as “A (A indicates >2.5 fold)” and the “IL-2 secretion CD3 1 μM” value was “B (B indicates 0.70-1.1 fold)”. Besides, in assay [1], the “CD25 staining CD3 3 μM” value was “A (A indicates >2.5 fold)” and the “IL-2 secretion CD3 3 μM” value was “B (B indicates 0.70-1.1 fold)”. Besides, on Cbl-b (setting [2]), the IC50 (in general, the concentration needed to halve the response being measured) is 20 to 100 nM. Besides, at Cbl-b (setting [3]), the IC50 fell in the range of 20 to 100 nM.
With `Cn1cnnc1C(C)(c1cccc(N2Cc3c(cccc3C(F)(F)F)C2=O)c1)C1CCC1` (stereo not drawn) [Compound 18, 2-(3-(1-cyclobutyl-1-(4-methyl-4H-1,2,4-triazol-3-yl)ethyl)phenyl)-4-(trifluoromethyl)isoindolin-1-one], in assay [1], the “CD25 staining CD3/CD28 0.3 μM” value was “B (B indicates 1.24-1.39 fold)”, the “IL-2 secretion CD3/CD28 0.3 μM” value was “C (C indicates <20 fold)”, the “CD25 staining CD3/CD28 1 μM” value is on record as “B (B indicates 1.24-1.39 fold)” and the “IL-2 secretion CD3/CD28 1 μM” value is “C (C indicates <20 fold)”. Further, in assay [1], the “CD25 staining CD3 1 μM” value is “B (B indicates 1.5-2.5 fold)”, the “IL-2 secretion CD3 1 μM” value was “C (C indicates <0.70 fold)”, the “CD25 staining CD3 3 μM” value is “A (A indicates >2.5 fold)” and the “IL-2 secretion CD3 3 μM” value is given as “C (C indicates <0.70 fold)”. On Cbl-b (setting [2]), the 50% inhibitory concentration (IC50) was more than 100 nM. Further, the half-maximal inhibitory concentration (IC50) on Cbl-b (setting [3]) is more than 100 nM.
For `C[C@@H]1CN(Cc2cc3c(c(C(F)(F)F)c2)CN(c2cccc([C@]4(c5nncn5C)C[C@@H](C)C4)c2)C3=O)CCC1(F)F` [Compound 19, 6-(((R)-4,4-difluoro-3-methylpiperidin-1-yl)methyl)-2-(3-((1s,3S)-3-methyl-1-(4-methyl-4H-1,2,4-triazol-3-yl)cyclobutyl)phenyl)-4-(trifluoromethyl)isoindolin-1-one], in assay [1], the “IL-2 secretion CD3/CD28 0.3 μM” value is listed as “C (C indicates <20 fold)”, the “IL-2 secretion CD3/CD28 1 μM” value is on record as “C (C indicates <20 fold)”, the “CD25 staining CD3 1 μM” value is “C (C indicates <1.5 fold)” and the “IL-2 secretion CD3 1 μM” value was “C (C indicates <0.70 fold)”. Besides, in assay [1], the “CD25 staining CD3 3 μM” value was “C (C indicates <1.5 fold)” and the “IL-2 secretion CD3 3 μM” value is listed as “C (C indicates <0.70 fold)”. In addition, on Cbl-b (setting [2]), the half-maximal inhibitory concentration (IC50) lay within 20 to 100 nM.
Consider `C[C@@H]1CN(Cc2cc3c(c(C(F)(F)F)c2)CN(c2cccc([C@]4(c5nncn5C)C[C@H](C)C4)c2)C3=O)CCC1(F)F` [Compound 20, 6-(((R)-4,4-difluoro-3-methylpiperidin-1-yl)methyl)-2-(3-((1r,3R)-3-methyl-1-(4-methyl-4H-1,2,4-triazol-3-yl)cyclobutyl)phenyl)-4-(trifluoromethyl)isoindolin-1-one], for which, in assay [1], the “CD25 staining CD3/CD28 0.3 μM” value is on record as “B (B indicates 1.24-1.39 fold)”, the “IL-2 secretion CD3/CD28 0.3 μM” value is listed as “C (C indicates <20 fold)”, the “CD25 staining CD3/CD28 1 μM” value is on record as “B (B indicates 1.24-1.39 fold)” and the “IL-2 secretion CD3/CD28 1 μM” value was “C (C indicates <20 fold)”. In assay [1], the “CD25 staining CD3 1 μM” value was “A (A indicates >2.5 fold)”, the “IL-2 secretion CD3 1 μM” value is “B (B indicates 0.70-1.1 fold)”, the “CD25 staining CD3 3 μM” value is “A (A indicates >2.5 fold)” and the “IL-2 secretion CD3 3 μM” value is reported as “A (A indicates >1.1 fold)”. Besides, the IC50 on Cbl-b (setting [2]) fell in the range of 20 to 100 nM.
On to `Cc1cc(C(=O)Nc2cccc([C@]3(c4nncn4C)C[C@@H](C)C3)c2)nc(C2CC2)n1` [Compound 21, 2-cyclopropyl-6-methyl-N-{3-[(1r,3s)-3-methyl-1-(4-methyl-1,2,4-triazol-3-yl)cyclobutyl]phenyl}pyrimidine-4-carboxamide], for which, in assay [1], the “CD25 staining CD3/CD28 0.3 μM” value is “B (B indicates 1.24-1.39 fold)”, the “IL-2 secretion CD3/CD28 0.3 μM” value is “C (C indicates <20 fold)”, the “CD25 staining CD3/CD28 1 μM” value is reported as “B (B indicates 1.24-1.39 fold)” and the “IL-2 secretion CD3/CD28 1 μM” value was “C (C indicates <20 fold)”. Further, in assay [1], the “CD25 staining CD3 1 μM” value is “B (B indicates 1.5-2.5 fold)”, the “IL-2 secretion CD3 1 μM” value is “B (B indicates 0.70-1.1 fold)”, the “CD25 staining CD3 3 μM” value is recorded as “B (B indicates 1.5-2.5 fold)” and the “IL-2 secretion CD3 3 μM” value is listed as “B (B indicates 0.70-1.1 fold)”. At Cbl-b (setting [2]), the IC50 lay in the range of 20 to 100 nM.
As for `Cc1cc(C(=O)Nc2cccc([C@]3(c4nncn4C)C[C@H](C)C3)c2)nc(C2CC2)n1` [Compound 22, 2-cyclopropyl-6-methyl-N-{3-[(1s,3r)-3-methyl-1-(4-methyl-1,2,4-triazol-3-yl)cyclobutyl]phenyl}pyrimidine-4-carboxamide], in assay [1], the “IL-2 secretion CD3/CD28 0.3 μM” value is on record as “C (C indicates <20 fold)”, the “IL-2 secretion CD3/CD28 1 μM” value is “C (C indicates <20 fold)”, the “CD25 staining CD3 1 μM” value is reported as “C (C indicates <1.5 fold)” and the “IL-2 secretion CD3 1 μM” value is “C (C indicates <0.70 fold)”. In addition, in assay [1], the “CD25 staining CD3 3 μM” value was “C (C indicates <1.5 fold)” and the “IL-2 secretion CD3 3 μM” value is on record as “C (C indicates <0.70 fold)”. Besides, the IC50 on Cbl-b (setting [2]) fell in the range of 20 to 100 nM.
As to `C[C@@H]1CN(Cc2cc3c(c(C(F)(F)F)c2)CN(c2cccc([C@]4(c5nncn5C)C[C@@H](C)C4)c2)C3=O)CCO1` [Compound 24, 2-(3-((1s,3S)-3-methyl-1-(4-methyl-4H-1,2,4-triazol-3-yl)cyclobutyl)phenyl)-6-(((R)-2-methylmorpholino)methyl)-4-(trifluoromethyl)isoindolin-1-one], in assay [1], the “IL-2 secretion CD3/CD28 0.3 μM” value is “C (C indicates <20 fold)”, the “IL-2 secretion CD3/CD28 1 μM” value is “C (C indicates <20 fold)”, the “CD25 staining CD3 1 μM” value is on record as “C (C indicates <1.5 fold)” and the “IL-2 secretion CD3 1 μM” value was “C (C indicates <0.70 fold)”. Further, in assay [1], the “CD25 staining CD3 3 μM” value was “C (C indicates <1.5 fold)” and the “IL-2 secretion CD3 3 μM” value is given as “C (C indicates <0.70 fold)”. For the same molecule, the IC50 at Cbl-b (setting [2]) was 20 to 100 nM.
As for `C[C@H]1CCCN(Cc2cc3c(c(C4CC4)n2)CN(c2cccc([C@]4(c5nncn5C)C[C@@H](C)C4)c2)C3=O)C1` [Compound 25, 4-cyclopropyl-2-(3-((1s,3R)-3-methyl-1-(4-methyl-4H-1,2,4-triazol-3-yl)cyclobutyl)phenyl)-6-(((S)-3-methylpiperidin-1-yl)methyl)-2,3-dihydro-1H-pyrrolo[3,4-c]pyridin-1-one], in assay [1], the “CD25 staining CD3/CD28 0.3 μM” value is given as “B (B indicates 1.24-1.39 fold)”, the “IL-2 secretion CD3/CD28 0.3 μM” value was “C (C indicates <20 fold)”, the “CD25 staining CD3/CD28 1 μM” value is “B (B indicates 1.24-1.39 fold)” and the “IL-2 secretion CD3/CD28 1 μM” value is recorded as “C (C indicates <20 fold)”. Besides, in assay [1], the “CD25 staining CD3 1 μM” value is given as “B (B indicates 1.5-2.5 fold)”, the “IL-2 secretion CD3 1 μM” value was “B (B indicates 0.70-1.1 fold)”, the “CD25 staining CD3 3 μM” value is “B (B indicates 1.5-2.5 fold)” and the “IL-2 secretion CD3 3 μM” value is “B (B indicates 0.70-1.1 fold)”. Besides, the IC50 at Cbl-b (setting [2]) was in the range of 5 to 20 nM.
